Experimental data from patent US20220267288A1, “CARDIAC THERAPEUTIC” (priority 2019, published 2022).
Entries after “also recorded” stand apart in the source; their conditions may differ.

How the values were obtained:
[1] = system: H9c2 cells; assay: Reduction of intracellular ATP (Mitochondrial ToxGlo) in differentiated H9c2 cells; format: cell-based; details: Rattus norvegicus; H9c2 cells, 6 h exposure; read-out: decrease in intracellular ATP levels IC50
Method: (§1) H9c2 cell line was purchased from American Tissue Type Collection (ATCC) (Manassas, Va.). The cells were cultured in low-glucose DMEM growth media (Cat No: 31600, Thermo Fisher Scientific, Waltham, Mass.) supplemented with 1.5 g/L sodium bicarbonate, 25 mM HEPES, 10% fetal bovine serum (FBS) (GE Healthcare, Singapore), 100 units/mL penicillin, 100 μg/mL streptomycin and 250 ng/mL amphotericin B in 75-cm^2 tissue-culture flasks at 37° C. in a humidified atmosphere of 5% CO2. Cells were fed every 2-3 days and sub-cultured once 70-80% confluency was achieved to prevent the loss of differentiation potential. For differentiation, H9c2 cells were seeded at a density of 100,000 cells/well in 12-well plates. The cells were maintained for 1 day in low-glucose high-serum growth media to allow for cell attachment. Subsequently, cells were differentiated using 1 μM ATRA.
H9c2 cells were seeded in a white chimney plate and differentiated. The media was changed to DMEM with 10 mM galactose, 2 mM glutamine (6 mM final), 5 mM HEPES, 1 mM sodium pyruvate, 100 U/mL penicillin, 100 μg/mL streptomycin, 0.25 μg/mL amphotericin B, 1% FBS, 1× insulin-transferrin-selenium and 1 μM ATRA for 48 h to overcome the Crabtree effect. […] The cytotoxicity and intracellular ATP content were measured concurrently using Mitochondrial ToxGlo™ kit (Promega, Madison, Wis.) using manufacturer's protocol. Mitochondrial ToxGlo™ assay measures the cell viability using fluorogenic peptide bis-alanine-alanine-phenylalanine-R110 (bis-AAF-R110). Bis-AAF-R110 is a selective peptide that measures protease activity in dead cells since it is impermeable to live cells. Here, the fluorescence derived from metabolized bis-AAF-R110 was measured at different concentrations of the test compounds and compared to control. As the concentration of cytotoxic compound increases, the number of dead cells increases, leading to a higher fluorescence signal. ATP is measured by adding the ATP Detection Reagent, resulting in cell lysis and generation of a luminescent signal proportional to the amount of ATP present. […]

[2] = system: hiPSC-CM; assay: Beat-to-beat variability (BBV), Poincaré plots; format: cell-based, human; details: 10 nM
From the text: The BBV calculations were done using Kubios HRV2.2 (Department of Applied Physics, University of Eastern Finland, Kuopio, Finland)^4. BBV is visualised as scatterplots known as Poincaré plots. In these plots, each time interval between two successive beats [inter-beat interval (RRn)] is plotted against the subsequent interval (RRn+1). Poincaré plot descriptors SD1 and SD2 define the extent of variability. SD1 represents a measure for short-term variability, whereas SD2 describes long-term variability^5.

[3] = target: T1, CYP3A4 (Homo sapiens, UniProt P08684); details: literature value, similar experimental set-up; cited from earlier work
T1 construct: purchased BD Gentest (Woburn, Mass.)

[4] = system: H9c2 cells; assay: Mitochondrial membrane potential (Δψm) dissipation, TMRM dye; format: cell-based; details: Rattus norvegicus; H9c2 cells, TMRM dye
Method: as §1
Dissipation of Δψm by each test compound was measured using mitochondrial permeable dye, tetramethylrhodamine methyl ester perchlorate (TMRM) (Thermo Fisher Scientific, Waltham, Mass.). […] The media was aspirated, the cells were washed with PBS and fluorescence was measured at 557 nm excitation and 570 nm emission wavelengths. […] The media was aspirated and then the cells were treated with dronedarone and the dissipation of Δψm by AADs was measured as described.

[5] = target: T2, CYP3A5 (Homo sapiens, UniProt P20815); details: literature value, similar experimental set-up; cited from earlier work
T2 construct: purchased BD Gentest (Woburn, Mass.)
T2 sequence (P20815 whole entry): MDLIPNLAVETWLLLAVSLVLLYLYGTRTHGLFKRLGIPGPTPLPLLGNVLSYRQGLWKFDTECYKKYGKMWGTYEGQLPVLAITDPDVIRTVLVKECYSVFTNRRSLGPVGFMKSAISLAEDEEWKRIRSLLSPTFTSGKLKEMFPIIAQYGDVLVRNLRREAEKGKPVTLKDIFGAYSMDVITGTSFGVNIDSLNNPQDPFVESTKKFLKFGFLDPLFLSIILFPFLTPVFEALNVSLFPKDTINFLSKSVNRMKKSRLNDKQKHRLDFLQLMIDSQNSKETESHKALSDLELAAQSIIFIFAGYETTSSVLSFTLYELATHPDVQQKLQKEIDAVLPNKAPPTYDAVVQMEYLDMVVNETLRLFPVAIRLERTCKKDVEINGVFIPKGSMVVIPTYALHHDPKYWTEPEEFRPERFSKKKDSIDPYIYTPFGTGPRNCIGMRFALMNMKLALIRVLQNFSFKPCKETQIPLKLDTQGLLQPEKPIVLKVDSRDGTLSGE

T1 sequence (P08684 whole entry): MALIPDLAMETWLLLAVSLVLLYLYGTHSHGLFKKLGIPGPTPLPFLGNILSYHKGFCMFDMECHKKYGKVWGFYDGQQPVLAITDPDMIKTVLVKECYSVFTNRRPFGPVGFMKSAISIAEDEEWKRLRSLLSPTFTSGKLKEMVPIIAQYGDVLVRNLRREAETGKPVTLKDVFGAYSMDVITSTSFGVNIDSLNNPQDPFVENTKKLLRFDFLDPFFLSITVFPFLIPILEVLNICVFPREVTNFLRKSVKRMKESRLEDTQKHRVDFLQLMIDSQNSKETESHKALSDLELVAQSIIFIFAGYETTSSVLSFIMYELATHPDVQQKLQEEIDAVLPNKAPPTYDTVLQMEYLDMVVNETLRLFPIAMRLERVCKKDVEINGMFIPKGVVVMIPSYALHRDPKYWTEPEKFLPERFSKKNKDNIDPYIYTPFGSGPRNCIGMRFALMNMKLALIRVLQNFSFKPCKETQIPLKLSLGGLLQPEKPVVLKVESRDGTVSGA

| SMILES | IC50 [1] [µM] | beat-to-beat variability (BBV), inter-beat intervals in Poincaré plot [2] | CLint CYP3A4 reported by Hong et al [3] [µL/min/pmol] | IC50 [4] [µM] | CLint CYP3A5 reported by Hong et al [5] [µL/min/pmol] |
| --- | --- | --- | --- | --- | --- |
| CCCCc1oc2ccc(NS(C)(=O)=O)cc2c1C(=O)c1ccc(OCCCN(CCCC)CCCC)cc1.Cl [Dronedarone] | 3.1 | do not cluster at the centroid of the ellipse and diffuse across the plot | 6.442 | 0.5 | 2.604 |
| Cl.[2H]c1c(NS(C)(=O)=O)c([2H])c2c(C(=O)c3ccc(OCCCN(CCCC)CCCC)cc3)c(CCCC)oc2c1[2H] [Poyendarone, Methanesulfonamide, N-(2-butyl-3-(4-(3-(dibutylamino)propoxy)benzoyl)-1-benzo(4,6,7-d3)-furan-5-yl)hydrochloride] | 41.5 | least variability among the beats; also recorded: lack of beat-to-beat variability (BBV) | – | – | – |
